Results from the supplement of paper PMC10011410.
± gives the standard deviation of the averaged measurements.

Columns and labels:
[1] = system: U-2 OS; assay: intracellular GSH:GSSG ratio (calculated); higher = more reduced glutathione pool; settings: 24 h
Protocol: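 Intracellular glutathione in U-2 OS cells after 24 h compound treatment at 5, 10 and 20 uM (some at 40 and 80 uM). Total glutathione and GSSG were measured with the GSH/GSSG-Glo kit, and the GSH:GSSG ratio was calculated. Mean of five technical replicate plates.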

[2] = system: U-2 OS; assay: relative cell count vs DMSO (cell painting) (fraction of DMSO control); higher = more cells remaining (less cytotoxic); settings: 24 h
Outline: (§1)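 Cell painting used U-2 OS cells at about 1,500 per well in 384-well plates, treated by pin tool for 24 h at 37 °C, usually at six 2-fold concentrations from 20 μM to 625 nM. Cells were stained with MitoTracker, concanavalin A, phalloidin, wheat germ agglutinin, Hoechst and SYTO 14 and imaged on an Opera Phenix. Features were extracted with CellProfiler and normalized to DMSO cells on the same plate. The activity score is the Mahalanobis distance from DMSO wells; cell count is relative to DMSO wells. Values are means of four replicate plates.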

[3] = system: U-2 OS; assay: cell viability (CellTiter-Glo) relative to DMSO (% of control); higher = more viable; settings: 24 h
Protocol: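 Cell viability of U-2 OS cells by CellTiter-Glo after 24 h compound treatment at 5, 10 and 20 uM (some at 40 and 80 uM), measured in parallel with the glutathione assay, as percent of DMSO control. Five technical replicate plates, averaged.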

[4] = system: U-2 OS; assay: total intracellular glutathione (GSH + GSSG) relative to DMSO (% of control); higher = more glutathione; settings: 24 h
Protocol: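 Total intracellular glutathione (GSH + GSSG) in U-2 OS cells by GSH/GSSG-Glo after 24 h compound treatment at 5, 10 and 20 uM (some at 40 and 80 uM), as percent of DMSO control. Five technical replicate plates, averaged.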

[5] = system: U-2 OS; assay: cell painting activity score (Mahalanobis distance from DMSO wells); higher = stronger morphological phenotype; settings: 24 h
Outline: as §1

[6] = system: U-2 OS; assay: AUC of culture confluence over time (live-cell imaging) (AUC (confluence % x time)); higher = more confluent culture (less growth inhibition)
Outline: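 Live-cell imaging tracked confluence of U-2 OS cells grown in F-12K medium plus 10% FBS. After seeding at 750 cells per well in 384-well plates, cells received compounds by pin tool 24 h later, mostly at 20, 10 and 5 μM, with 0.2% DMSO. Plates stayed at 37 °C and were imaged every 4 h for up to 60 h. Each value is the area under the confluence-versus-time curve.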

## Oc1cccc(O)c1O
[1]; 5 µM
  intracellular GSH:GSSG ratio: 22.7
[1]; 10 µM
  intracellular GSH:GSSG ratio: 8.34
[1]; 20 µM
  intracellular GSH:GSSG ratio: 5.48
[1]; 40 µM
  intracellular GSH:GSSG ratio: 1.66
[2]; 0.625 µM
  relative cell count: 0.96
[2]; 1.25 µM
  relative cell count: 0.998
[2]; 2.5 µM
  relative cell count: 0.978
[2]; 5 µM
  relative cell count: 1.02
[2]; 10 µM
  relative cell count: 0.974
[2]; 20 µM
  relative cell count: 0.973
[3]; 5 µM
  cell viability: 82.2 ± 6.1
[3]; 10 µM
  cell viability: 35.7 ± 10
[3]; 20 µM
  cell viability: 0.451 ± 0.23
[3]; 40 µM
  cell viability: 0.221 ± 0.03
[3]; 80 µM
  cell viability: 0.263 ± 0.059
[4]; 5 µM
  total intracellular glutathione: 82.6 ± 6.4
[4]; 10 µM
  total intracellular glutathione: 48.8 ± 13
[4]; 20 µM
  total intracellular glutathione: 3.4 ± 0.69
[4]; 40 µM
  total intracellular glutathione: 2.67 ± 0.16
[4]; 80 µM
  total intracellular glutathione: 2.53 ± 0.23
[5]; 0.625 µM
  cell painting activity score: 3.4
[5]; 1.25 µM
  cell painting activity score: 4.83
[5]; 2.5 µM
  cell painting activity score: 3.93
[5]; 5 µM
  cell painting activity score: 3.87
[5]; 10 µM
  cell painting activity score: 5.49
[5]; 20 µM
  cell painting activity score: 5.54
[6]; 5 µM
  AUC of culture confluence over time: 46.4
[6]; 10 µM
  AUC of culture confluence over time: 48
[6]; 20 µM
  AUC of culture confluence over time: 38.4

## Nc1nc(-c2ccccc2)[n+](-c2ccccc2)s1
[1]; 5 µM
  intracellular GSH:GSSG ratio: 25.1
[1]; 10 µM
  intracellular GSH:GSSG ratio: 18.2
[1]; 20 µM
  intracellular GSH:GSSG ratio: 2.7
[2]; 0.625 µM
  relative cell count: 1.06
[2]; 1.25 µM
  relative cell count: 1.11
[2]; 2.5 µM
  relative cell count: 1.04
[2]; 5 µM
  relative cell count: 1.13
[2]; 10 µM
  relative cell count: 1.08
[2]; 20 µM
  relative cell count: 0.605
[3]; 5 µM
  cell viability: 106 ± 3.7
[3]; 10 µM
  cell viability: 105 ± 6.1
[3]; 20 µM
  cell viability: 16 ± 10
[4]; 5 µM
  total intracellular glutathione: 113 ± 5.1
[4]; 10 µM
  total intracellular glutathione: 117 ± 8.2
[4]; 20 µM
  total intracellular glutathione: 26.8 ± 7.4
[5]; 0.625 µM
  cell painting activity score: 7.03
[5]; 1.25 µM
  cell painting activity score: 3.42
[5]; 2.5 µM
  cell painting activity score: 2.65
[5]; 5 µM
  cell painting activity score: 3.42
[5]; 10 µM
  cell painting activity score: 3.28
[5]; 20 µM
  cell painting activity score: 9.72
[6]; 5 µM
  AUC of culture confluence over time: 39.6
[6]; 10 µM
  AUC of culture confluence over time: 44.4
[6]; 20 µM
  AUC of culture confluence over time: 43.3

## C[C@@H]1C[C@H]2O[C@@H]2/C=C\C=C\C(=O)Cc2c(Cl)c(O)cc(O)c2C(=O)O1
[1]; 5 µM
  intracellular GSH:GSSG ratio: 27
[1]; 10 µM
  intracellular GSH:GSSG ratio: 7.74
[1]; 20 µM
  intracellular GSH:GSSG ratio: 3.63
[2]; 0.625 µM
  relative cell count: 0.852 ± 0.039
[2]; 1.25 µM
  relative cell count: 0.731 ± 0.047
[2]; 2.5 µM
  relative cell count: 0.597 ± 0.06
[2]; 5 µM
  relative cell count: 0.466 ± 0.042
[2]; 10 µM
  relative cell count: 0.419 ± 0.033
[2]; 20 µM
  relative cell count: 0.388 ± 0.018
[3]; 5 µM
  cell viability: 86.8 ± 3
[3]; 10 µM
  cell viability: 24.7 ± 2.7
[3]; 20 µM
  cell viability: 4.77 ± 0.71
[4]; 5 µM
  total intracellular glutathione: 87.8 ± 4.1
[4]; 10 µM
  total intracellular glutathione: 36 ± 6.1
[4]; 20 µM
  total intracellular glutathione: 12.9 ± 0.62
[5]; 0.625 µM
  cell painting activity score: 14.6 ± 1.8
[5]; 1.25 µM
  cell painting activity score: 14.1 ± 1.8
[5]; 2.5 µM
  cell painting activity score: 15.2 ± 1.9
[5]; 5 µM
  cell painting activity score: 16.2 ± 1.9
[5]; 10 µM
  cell painting activity score: 16.1 ± 1.1
[5]; 20 µM
  cell painting activity score: 15.3 ± 0.8
[6]; 0.625 µM
  AUC of culture confluence over time: 57.8
[6]; 1.25 µM
  AUC of culture confluence over time: 48.6
[6]; 2.5 µM
  AUC of culture confluence over time: 46.8
[6]; 5 µM
  AUC of culture confluence over time: 19.9
[6]; 10 µM
  AUC of culture confluence over time: 21.3
[6]; 20 µM
  AUC of culture confluence over time: 20.2

## CCCC1(c2ccccc2)NC(=O)N(CC(=O)N(C)Cc2c(F)cccc2Cl)C1=O (centres undefined)
[1]; 5 µM
  intracellular GSH:GSSG ratio: 20.7
[1]; 10 µM
  intracellular GSH:GSSG ratio: 26.8
[1]; 20 µM
  intracellular GSH:GSSG ratio: 22.5
[2]; 0.625 µM
  relative cell count: 1.02
[2]; 1.25 µM
  relative cell count: 0.978
[2]; 2.5 µM
  relative cell count: 1.04
[2]; 5 µM
  relative cell count: 1.03
[2]; 10 µM
  relative cell count: 0.991
[2]; 20 µM
  relative cell count: 1.04
[3]; 5 µM
  cell viability: 101 ± 3.2
[3]; 10 µM
  cell viability: 102 ± 2.8
[3]; 20 µM
  cell viability: 100 ± 2.9
[4]; 5 µM
  total intracellular glutathione: 102 ± 4.9
[4]; 10 µM
  total intracellular glutathione: 104 ± 2.5
[4]; 20 µM
  total intracellular glutathione: 101 ± 3.9
[5]; 0.625 µM
  cell painting activity score: 4.41
[5]; 1.25 µM
  cell painting activity score: 4.87
[5]; 2.5 µM
  cell painting activity score: 5.72
[5]; 5 µM
  cell painting activity score: 6.63
[5]; 10 µM
  cell painting activity score: 7.72
[5]; 20 µM
  cell painting activity score: 8.18
[6]; 5 µM
  AUC of culture confluence over time: 53.9
[6]; 10 µM
  AUC of culture confluence over time: 48.4
[6]; 20 µM
  AUC of culture confluence over time: 48.7
